Each compound was assayed against PDE3 enzyme (Homo sapiens (Human), UniProt Q14432) (assay: PDE3 inhibition assay (BIOMOL GREEN Quantizyme Assay System)). Settings: PDE3 from platelets isolated from human blood; cAMP substrate; 1 hour at 37° C.; read at 620 nm.
Format: biochemical
Experimental: PDE3 inhibition assay was performed a BIOMOL GREEN™ Quantizyme Assay System (catalogue No. BML-AK800-0001). The Platelets isolated from human blood were used as a source of PDE3 enzyme. 10 mL blood collected in a vacutainer tube (containing K3 EDTA) and centrifuged at 190×g for 15 min at room temperature. Top layer (platelet rich plasma) collected, centrifuged at 2500 g for 5 min at 22° C. (Room temp.) The pellet was washed with 2 ml of 50 mM tris buffer (pH-7.4) containing 1 mM MgCl2 and centrifuged at 2500 g for 5 min. Then 200 μl of assay buffer (from PDE kit, Enzo Life Sciences) was added to the pellet and sonicated at 30 s per ml. Pellet was freeze thawed for three times (−80° C.) in order to rupture the platelet membrane and release the PDE enzyme. Then the cell homogenate was centrifuged at 2500 rpm for 5 min. Supernatant was collected and used as source for PDE3 enzyme. In 96 well plate (Prod. No. BML-KI101), we added supernatant having PDE3 enzyme, PDE3 assay buffer, cAMP substrate, 5′ nucleotidase and test or standard compound and incubated for 1 hour at 37° C. The reaction was arrested by the addition 100 μl BIOMOL GREEN reagent incubated in room temp for 20 min. The green color developed was measured at 620 nm.
The in vitro Phosphodiestarase (PDE3) inhibitory activity of compounds 1a-q, were measured using a BIOMOL GREEN™ Quantizyme Assay System (catalogue No. BML-AK800-0001). The basic principle for this assay is the cleavage of c-AMP or c-GMP into their respective nucleotide by a cyclic nucleotide phosphodiesterase. The nucleotide (AMP or GMP) released is further cleaved into the nucleoside and phosphate by the enzyme 5′-nucleotidase. The extent of phosphate released is directly proportional to the PDE activity. In this screening method, the released phosphate by the enzymatic cleavage is quantified using BIOMOL GREEN reagent in a modified malachite green assay. The resulting green colour with λmax at 620 nm is directly proportional to the released phosphate and then PDE activity.

Sequence of PDE3 enzyme (Q14432 whole entry): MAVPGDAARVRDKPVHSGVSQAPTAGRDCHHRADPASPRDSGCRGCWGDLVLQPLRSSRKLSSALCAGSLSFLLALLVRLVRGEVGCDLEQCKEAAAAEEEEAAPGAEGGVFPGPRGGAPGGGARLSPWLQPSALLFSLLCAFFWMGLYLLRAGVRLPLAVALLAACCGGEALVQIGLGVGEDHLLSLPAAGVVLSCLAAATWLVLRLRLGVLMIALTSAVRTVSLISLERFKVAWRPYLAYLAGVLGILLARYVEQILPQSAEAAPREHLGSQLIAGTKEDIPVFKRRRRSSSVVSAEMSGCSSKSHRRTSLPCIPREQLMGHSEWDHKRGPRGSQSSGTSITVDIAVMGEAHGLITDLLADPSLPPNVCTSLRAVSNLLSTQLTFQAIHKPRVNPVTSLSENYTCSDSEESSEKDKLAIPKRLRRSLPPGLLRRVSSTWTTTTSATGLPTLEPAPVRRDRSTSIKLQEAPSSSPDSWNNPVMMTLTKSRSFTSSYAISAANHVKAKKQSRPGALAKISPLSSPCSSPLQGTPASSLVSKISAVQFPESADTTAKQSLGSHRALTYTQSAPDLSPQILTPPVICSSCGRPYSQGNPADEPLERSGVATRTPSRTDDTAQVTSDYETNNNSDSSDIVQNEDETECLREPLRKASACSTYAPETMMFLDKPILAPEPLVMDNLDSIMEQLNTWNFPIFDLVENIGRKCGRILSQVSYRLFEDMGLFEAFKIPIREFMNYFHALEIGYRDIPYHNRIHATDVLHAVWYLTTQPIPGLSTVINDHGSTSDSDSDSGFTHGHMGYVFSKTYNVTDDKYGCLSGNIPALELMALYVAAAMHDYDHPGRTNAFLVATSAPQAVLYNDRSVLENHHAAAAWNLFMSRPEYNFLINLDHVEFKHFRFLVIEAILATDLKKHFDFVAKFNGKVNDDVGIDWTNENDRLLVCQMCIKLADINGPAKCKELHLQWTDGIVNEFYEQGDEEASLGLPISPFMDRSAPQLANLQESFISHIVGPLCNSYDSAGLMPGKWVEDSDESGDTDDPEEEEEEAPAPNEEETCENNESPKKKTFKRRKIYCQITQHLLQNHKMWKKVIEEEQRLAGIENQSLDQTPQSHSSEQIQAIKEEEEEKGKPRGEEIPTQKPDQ

Row | IC50 [nM] | Structure (SMILES)
1 | 11800 | Cn1c(=O)c2cc(Cc3ccccc3)c(=O)[nH]c2n(C)c1=O [Compound 1a, 6-Benzyl-1,3-dimethyl-1,2,3,4,7,8-hexahydropyrido[2,3-d]pyrimidine-2,4,7-trione]
2 | 48.8 | Cn1c(=O)c2cc(Cc3ccccc3F)c(=O)[nH]c2n(C)c1=O [Compound 1b, 6-(2-Fluorobenzyl)-1,3-dimethyl-1,2,3,4,7,8-hexahydropyrido[2,3-d]pyrimidine-2,4,7-trione]
3 | 32.3 | Cn1c(=O)c2cc(Cc3cccc(F)c3)c(=O)[nH]c2n(C)c1=O [Compound 1c, 6-(3-Fluorobenzyl)-1,3-dimethyl-1,2,3,4,7,8-hexahydropyrido[2,3-d]pyrimidine-2,4,7-trione]
4 | 12.5 | Cn1c(=O)c2cc(Cc3ccc(Cl)cc3)c(=O)[nH]c2n(C)c1=O [Compound 1g, 6-(4-Chlorobenzyl)-1,3-dimethyl-1,2,3,4,7,8-hexahydropyrido[2,3-d]pyrimidine-2,4,7-trione]
5 | 6.6 | Cn1c(=O)c2cc(Cc3ccccc3Br)c(=O)[nH]c2n(C)c1=O [Compound 1i, 6-(2-Bromobenzyl)-1,3-dimethyl-1,2,3,4,7,8-hexahydropyrido[2,3-d]pyrimidine-2,4,7-trione]
6 | 4.8 | Cn1c(=O)c2cc(Cc3ccc(Br)cc3)c(=O)[nH]c2n(C)c1=O [Compound 1k, 6-(4-Bromobenzyl)-1,3-dimethyl-1,2,3,4,7,8-hexahydropyrido[2,3-d]pyrimidine-2,4,7-trione]

Reference: patent US9242982B2, “Pyridopyrimidine based derivatives as potential phosphodiesterase 3 (PDE3) inhibitors and a process for the preparation thereof” (COUNCIL OF SCIENTIFIC & INDUSTRIAL RESEARCH, priority 2013, dated 2016)
